Laboratory results: article PMC4102417 (PLoS Neglected Tropical Diseases, 2014)
Counter-ions that a name gives are not always drawn. Like-named read-outs stand apart in the source and are kept apart here.

Columns and labels:
[1] = tested on: T. cruzi (Tulahuen strain); assay: microbe, parasite or virus in culture; assay type: cell-based, Trypanosoma cruzi; conditions: for activity at 10 µM / EC50: Trypanosoma cruzi, TULAHUEN, Fibroblast; for activity at 10 µM: 120 h, read-out: T. cruzi % growth @ 10 uM (Amastigotes); for EC50: read-out: T. cruzi EC50
Outline: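 Tulahuen parasites expressing beta-galactosidase were added (1×10^4 trypomastigotes/well) to 3T3 fibroblasts plated 24 h earlier, 4 h before compound (10 µM final).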

3T3 fibroblast cells = assay: cells; assay type: cell-based, murine; conditions: for activity at 10 µM: Mus musculus, NIH3T3, 72 h, read-out: Mammalian (3T3) cell % growth at 10 uM

| Structure (SMILES) | activity at 10 µM ([1]; 10 uM, Table S2) [%] | activity at 10 µM (3T3 fibroblast cells; 10 uM, Table S2) [%] | further results |
| --- | --- | --- | --- |
| CCCCCCCC/C=C/CCCCCCCCOP(=O)([O-])OCC[N+](C)(C)C [ELAIDYLPHOSPHOCHOLINE, (9E)-octadec-9-en-1-yl [2-(trimethylazaniumyl)ethyl] phosphate] | 5 | 93.7 | – |
| C=CC(C)(O)CCC1C(=C)CCC2C(C)(CO)CCCC12C (stereo not drawn) [EPI(13)TORULOSOL, 5-[5-(hydroxymethyl)-5,8a-dimethyl-2-methylidene-decahydronaphthalen-1-yl]-3-methylpent-1-en-3-ol] | 14.5 | 86.1 | – |
| CC12CCC3C(CCC4CC(O)CCC43C)C1CCC2=O (stereo not shown) [EPIANDROSTERONE, 5-hydroxy-2,15-dimethyltetracyclo[8.7.0.0^{2,7}.0^{11,15}]heptadecan-14-one] | – | – | activity at 10 µM [1]: 18.8%; activity at 10 µM (3T3 fibroblast cells): 100% |
| CC(=O)OC1CC2C(C)(C)C(=O)C3OC3C2(C)C2CCC3(C)C(c4ccoc4)OC(=O)C4OC43C12C (stereo not shown) [EPOXYGEDUNIN, 7-(furan-3-yl)-1,8,12,17,17-pentamethyl-5,16-dioxo-3,6,14-trioxahexacyclo[9.9.0.0^{2,4}.0^{2,8}.0^{12,18}.0^{13,15}]icosan-20-yl acetate] | 4.4 | 73.4 | – |
| CC(C)C(C)/C=C/C(C)C1CCC2C3=CC=C4CC(O)CCC4(C)C3CCC21C (stereo not shown) [ERGOSTEROL, 14-[(3E)-5,6-dimethylhept-3-en-2-yl]-2,15-dimethyltetracyclo[8.7.0.0^{2,7}.0^{11,15}]heptadeca-7,9-dien-5-ol] | 6 | 99.6 | – |
| CCC(=O)O[C@H]1CC[C@H]2[C@@H]3CCc4cc(O)ccc4[C@H]3CC[C@]12C [ESTRADIOL PROPIONATE, (1S,10R,11S,14S,15S)-5-hydroxy-15-methyltetracyclo[8.7.0.0^{2,7}.0^{11,15}]heptadeca-2,4,6-trien-14-yl propanoate] | 20.3 | 100 | – |
| CCOc1ccc(Cc2nccc3cc(OCC)c(OCC)cc23)cc1OCC [ETHAVERINE, 1-[(3,4-diethoxyphenyl)methyl]-6,7-diethoxyisoquinoline] | 3.7 | 95.1 | – |
| CC(=O)OC1CCC2(C)C3=C(CCC2C1(C)C)C1(C)CCC(C(C)CCC=C(C)C)C1(C)CC3 (stereo not shown) [EUPHOL ACETATE, 2,6,6,11,15-pentamethyl-14-(6-methylhept-5-en-2-yl)tetracyclo[8.7.0.0^{2,7}.0^{11,15}]heptadec-1(10)-en-5-yl acetate] | 12 | 87.6 | – |
| N#Cc1nn(-c2c(Cl)cc(C(F)(F)F)cc2Cl)c(N)c1[S+]([O-])C(F)(F)F (stereo not shown) [FIPRONIL, 5-amino-1-[2,6-dichloro-4-(trifluoromethyl)phenyl]-4-(trifluoromethane)sulfinyl-1H-pyrazole-3-carbonitrile] | 3.7 | 100 | – |
| O=c1[nH]c(=O)n(C2CC(O)C(CO)O2)cc1F (stereo not shown) [FLOXURIDINE, 5-fluoro-1-[4-hydroxy-5-(hydroxymethyl)oxolan-2-yl]-1,2,3,4-tetrahydropyrimidine-2,4-dione] | 2.6 | 86.2 | – |
| OCCN1CCN(CCCN2c3ccccc3Sc3ccc(C(F)(F)F)cc32)CC1 [FLUPHENAZINE, 2-(4-{3-[2-(trifluoromethyl)-10H-phenothiazin-10-yl]propyl}piperazin-1-yl)ethan-1-ol] | 2.2 | 100 | – |
| COc1cc2ccc(=O)oc2c(O)c1O [FRAXETIN, 7,8-dihydroxy-6-methoxy-2H-chromen-2-one] | 8.1 | 100 | – |
| O=c1c(-c2ccc(O)cc2)coc2cc(O)cc(O)c12 [GENISTEIN, 5,7-dihydroxy-3-(4-hydroxyphenyl)-4H-chromen-4-one] | 6.4 | 100 | – |
| O=c1c(O)c(-c2ccc(O)c(O)c2)oc2c(OC3OC(CO)C(O)C(O)C3O)c(O)cc(O)c12 (stereo not shown) [GOSSYPIN, 2-(3,4-dihydroxyphenyl)-3,5,7-trihydroxy-8-{[3,4,5-trihydroxy-6-(hydroxymethyl)oxan-2-yl]oxy}-4H-chromen-4-one] | 17.7 | 100 | – |
| Oc1cc2c(cc1O)C1c3ccc(O)c(O)c3OCC1(O)C2 (stereo not shown) [HAEMATOXYLIN, 8-oxatetracyclo[8.7.0.0^{2,7}.0^{12,17}]heptadeca-2,4,6,12,14,16-hexaene-5,6,10,14,15-pentol] | 3.7 | 100 | – |
| COc1ccc2c(c1)[nH]c1c(C)nccc12 [HARMINE, 7-methoxy-1-methyl-9H-pyrido[3,4-b]indole] | 7.5 | 87.2 | – |

| Structure (SMILES) | activity at 10 µM ([1]; 10 uM, Table S2) [%] | activity at 10 µM (3T3 fibroblast cells; 10 uM, Table S2) [%] | further results |
| --- | --- | --- | --- |
| O=c1cc(-c2cc(O)c(O)c(O)c2)oc2cc(O)cc(O)c12 [HIERACIN, 5,7-dihydroxy-2-(3,4,5-trihydroxyphenyl)-4H-chromen-4-one] | 6.5 | 100 | – |
| Oc1ccc(O)cc1 [HYDROQUINONE, benzene-1,4-diol] | – | – | activity at 10 µM [1]: 22.6%; activity at 10 µM (3T3 fibroblast cells): 93.9% |
| CCN(CCO)CCCC(C)Nc1ccnc2cc(Cl)ccc12 (stereo not shown) [HYDROXYCHLOROQUINE SULFATE, 2-({4-[(7-chloroquinolin-4-yl)amino]pentyl}(ethyl)amino)ethan-1-ol; sulfuric acid] | – | – | activity at 10 µM ([1]; 10 uM, Table S1): 0.1%; EC50 ([1]; Table S2, amastigotes): 4.64 µM; activity at 10 µM (3T3 fibroblast cells; 10 uM, Table S1): 100% |
| CCCCCC(=O)O[C@]1(C(C)=O)CC[C@H]2C3CCC4=CC(=O)CCC4(C)[C@H]3CCC21C (stereo partly drawn) [HYDROXYPROGESTERONE CAPROATE, (1S,11S,14R)-14-acetyl-2,15-dimethyl-5-oxotetracyclo[8.7.0.0^{2,7}.0^{11,15}]heptadec-6-en-14-yl hexanoate] | 1.8 | 100 | EC50 ([1]; Table S2, amastigotes): 10 µM |
| O=c1c(-c2cc(O)c(O)c(O)c2)coc2cc(O)c(O)c(O)c12 [IRIGENOL, 5,6,7-trihydroxy-3-(3,4,5-trihydroxyphenyl)-4H-chromen-4-one] | 5.7 | 73.7 | – |
| CC(=O)N1CCN(c2ccc(OC[C@H]3CO[C@](Cn4ccnc4)(c4ccc(Cl)cc4Cl)O3)cc2)CC1 [KETOCONAZOLE, 1-[4-(4-{[(2R,4S)-2-(2,4-dichlorophenyl)-2-(1H-imidazol-1-ylmethyl)-1,3-dioxolan-4-yl]methoxy}phenyl)piperazin-1-yl]ethan-1-one] | 2.1 | 100 | EC50 ([1]; Table S2, amastigotes): 0.0003 µM; EC50 [1]: 0.001 µM |
| C=CC(C)(O)CCC1C(=C)CC(O)C2C(C)(C)CCCC12C (stereo not shown) [LARIXOL, 4-(3-hydroxy-3-methylpent-4-en-1-yl)-4a,8,8-trimethyl-3-methylidene-decahydronaphthalen-1-ol] | 6.4 | 74 | – |
| CCN(CCCCOC(=O)c1ccc(OC)c(OC)c1)C(C)Cc1ccc(OC)cc1 (stereo not shown) [MEBEVERINE, 4-{ethyl[1-(4-methoxyphenyl)propan-2-yl]amino}butyl 3,4-dimethoxybenzoate] | 4.1 | 92.3 | – |
| CN1CCc2c(c3ccccc3n2Cc2ccccc2)C1.O=S(=O)(O)c1cccc2c(S(=O)(=O)O)cccc12 [MEBHYDROLIN NAPHTHALENESULFONATE, 5-benzyl-2-methyl-1H,2H,3H,4H,5H-pyrido[4,3-b]indole; naphthalene-1,5-disulfonic acid] | – | – | T. cruzi % growth @ 10 uM (Amastigotes) ([1]; 10 uM, Table S2): 3.3%; Mammalian (3T3) cell % growth at 10 uM (3T3 fibroblast cells; 10 uM, Table S2): 100% |
| CNc1ccc(C(=O)CC(O)CCC(C)C2OC(=O)CC(O)CC(=O)CC(O)CC(O)CC(O)CC(O)CC3(O)CC(O)C(C(=O)OC)C(CC(O[C@@H]4O[C@H](C)[C@@H](O)[C@H](N)[C@@H]4O)/C=C/C=C/C=C/C=C\C=C/C=C/C=C/C2C)O3)cc1 (stereo partly drawn) [MEPARTRICIN, methyl (19E,21E,23Z,25Z,27E,29E,31E)-33-{[(2R,3S,4S,5S,6R)-4-amino-3,5-dihydroxy-6-methyloxan-2-yl]oxy}-1,3,5,7,9,13,37-heptahydroxy-17-{5-hydroxy-7-[4-(methylamino)phenyl]-7-oxoheptan-2-yl}-18-methyl-11,15-dioxo-16,39-dioxabicyclo[33.3.1]nonatriaconta-19,21,23,25,27,29,31-heptaene-36-carboxylate] | 2.6 | 97.3 | – |
| CSc1ccc2c(c1)C(N1CCN(C)CC1)Cc1ccccc1S2 (stereo not shown) [METHIOTHEPIN, (2Z)-but-2-enedioic acid; 1-methyl-4-[6-(methylsulfanyl)-2-thiatricyclo[9.4.0.0^{3,8}]pentadeca-1(15),3,5,7,11,13-hexaen-9-yl]piperazine] | 4.4 | 69.6 | – |
| COC(=O)CCC(C)C1CCC2C3CCC4CC(O)CCC4(C)C3CC(O)C12C (stereo not shown) [METHYL DEOXYCHOLATE, methyl 4-{5,16-dihydroxy-2,15-dimethyltetracyclo[8.7.0.0^{2,7}.0^{11,15}]heptadecan-14-yl}pentanoate] | 22.9 | 100 | – |
| COc1c2c(cc3occ(-c4ccc5c(c4)OCO5)c(=O)c13)OC(C)(C)C=C2 [METHYL ROBUSTONE, 3-(2H-1,3-benzodioxol-5-yl)-5-methoxy-8,8-dimethyl-4H,8H-pyrano[3,2-g]chromen-4-one] | 2.5 | 68.2 | – |
| COc1c(-c2coc3cc4c(cc3c2=O)CC(OC(C)=O)C(C)(C)O4)ccc2c1C=CC(C)(C)O2 (stereo not shown) [MUNDULONE ACETATE] | 4.6 | 76 | – |
| COc1c(C)c2c(c(O)c1CC=C(C)CCC(=O)O)C(=O)OC2 [MYCOPHENOLIC ACID, 6-(4-hydroxy-6-methoxy-7-methyl-3-oxo-1,3-dihydro-2-benzofuran-5-yl)-4-methylhex-4-enoic acid] | 12.2 | 97.2 | EC50 ([1]; Table S2, amastigotes): 0.32 µM |
